# Where a name gives a salt, the structure may show the parent alone. Read-outs that look alike come from different tables or passages of the source. Marks after values point to notes of the source that are not given here.
# Legend:
# [1] = Cytotoxicity in H9c2 cells (CCK-8); assay type: cell-based; details: rat, H9c2 cells; H9c2 cell line
# Summary of the method: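 H9c2 cells were grown in DMEM with 10% FBS, seeded the day before, and exposed to a range of di-amidine concentrations for 24 h at 37 °C, 5% CO2. Viability was read by CCK-8 after 3 h at 37 °C as absorbance at 450 nm.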
# E. coli (ATCC 25922) = experiment: MIC determination, sensitization fold and FIC index on E. coli; assay type: cell-based; details: for MIC: Escherichia coli, ATCC25922, 24 h; for MIC of AB with MD-124: MD-124 concentration 5 μg/ml
# Summary of the method: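 MICs read by OD600 as >90% growth inhibition after two-fold rifampicin dilutions, 5×10^5 CFU/ml E. coli, 24 h, 37 °C, shaken, cation-adjusted Mueller Hinton II broth.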
# MRSA (ATCC 33592) = experiment: MIC determination and sensitization fold on MRSA; assay type: cell-based, methicillin-resistant Staphylococcus aureus; details: MRSA, rifampicin
# Experimental: Bacteria strains: E. coli (ATCC 25922), A. baumannii (ATCC 17978), K. pneumoniae (43816), S. maltophilia (ATCC 31559), S. typhimurium (ATCC 14028), C. werkmanii (ATCC 51114), S. aureus (ATCC 12600) and methicillin-resistant Staphylococcus aureus (MRSA, ATCC 33592) strains were purchased from ATCC. NR698 was provided.
# Bacteria culture and MICs determination: Gram-negative bacteria were cultured in Mueller Hinton II cation-adjusted broth. Gram-positive bacteria were cultured in LB broth. Mycobacterium smegmatis was cultured in Middlebrook 7H9 Broth. MICs of antibiotics itself were determined by performing two-fold serial dilutions of antibiotics. MICs of antibiotics in the presence of bacterial sensitizers were determined by performing two-fold serial dilutions of antibiotics with or without a constant concentration of bacterial sensitizers. The MICs tests were performed on 96-well plates with a final volume of 200 μl Mueller Hinton II cation-adjusted broth in each well. Each well was inoculated with 5×10^5 CFU/ml bacteria and was incubated for 24 h at 37° C. with continuous shaking of 200 rpm. The bacterial density was then determined by OD600. Bacterial growth %=OD600 of antibiotic treatment group/OD600 of antibiotic non-treatment group. MICs was determined as the concentrations that inhibit more than 90% of bacteria growth.
# Sensitization fold determination and FIC index calculations: Sensitization fold=MIC of antibiotic only/MIC of antibiotic with bacterial sensitizer. […] Since the MICs were determined by performing two-fold serial dilutions of antibiotic, so the sensitization fold can is the times of 2.
# Bacteria strains (as indicated in Table 5B) were cultured with rifampicin at various concentrations in the presence or absence of 10 μM of the indicated compound for 20 h at 37° C. The MIC, sensitization, cytotoxicity, and MIC on mycobacteria were tested according to methods described herein. […] The sensitization activities of compounds on MRSA were tested using rifampicin. The sensitization activities of compounds on E. coli were tested using rifampicin.
# M. smegmatis = experiment: MIC on mycobacteria; assay type: cell-based, Mycobacterium smegmatis; details: Mycolicibacterium smegmatis, read-out: MIC on mycobacteria
# HEK293 cells = experiment: Cytotoxicity on mammalian cells (CCK-8), HEK293; assay type: cell-based; details: for CC50: HEK293 cell line, 24 h; for IC50: Homo sapiens, HEK293
# Summary of the method: (§1)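 Cells seeded a day ahead to ~80% confluency, exposed to varied compound concentrations for 24 h at 37° C, 5% CO2. CCK-8 added for a further 2 h and OD 450 nm read; viability expressed as percent of untreated control.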
# NIH3T3 cells = experiment: Cytotoxicity on mammalian cells (CCK-8), NIH3T3; assay type: cell-based; details: 3T3 cell line; 24 h
# Summary of the method: as §1
# B. subtilis = experiment: MIC determination and sensitization fold on B. subtilis; assay type: cell-based; details: B. subtilis; for Sensitization fold: erythromycin
# [2] = test system: A. baumannii (ATCC 17978); experiment: MIC, sensitization fold and FIC index on A. baumannii; assay type: cell-based; details: A. baumannii towards the antibiotic
# K. pneumoniae (43816) = experiment: MIC, sensitization fold and FIC index on K. pneumoniae; assay type: cell-based; details: for MIC of AB with 5 μg/ml MD-124: K. pneumoniae; for Sensitization fold with 5 μg/ml MD-124: K. pneumoniae towards the antibiotic
# [3] = Cytotoxicity on mammalian cells (CCK-8), HEK293; assay type: cell-based; details: human, HEK293 cells; HEK293 cell line; 24 h
# Summary of the method: as §1
# [4] = Cytotoxicity on mammalian cells (CCK-8), NIH3T3; assay type: cell-based; details: mouse, NIH3T3 cells, 3T3 cell line
# Summary of the method: as §1
# [5] = IC50 of Table 7 (cell line not stated); assay type: cell-based
# [6] = test system: NDM-1 expressing E. coli strain; experiment: microbe, parasite or virus in culture; assay type: cell-based; details: NDM-1 expressing E. coli towards the antibiotic
# [7] = 10 μM compound, rifampicin as the antibiotic (Table 6)
# [8] = E. coli, rifampicin, compound at 10 μM
# [9] = E. coli, rifampicin, compound at 25 μM
# [10] = E. coli towards the antibiotic, MD-124 5 μg/ml
# [11] = E. coli (wild type), antibiotic alone, read-out: MIC of AB only
# [12] = E. coli, rifampicin, 10 μg/ml bacterial sensitizer
structure (smiles),measurement,setting,value
"COc1cc(C(=N)N)ccc1OCc1cc(C)cc(COc2ccc(C(=N)N)cc2OC)c1 [MD-103, 4,4′-(((5-methyl-1,3-phenylene)bis(methylene))bis(oxy))bis(3-methoxybenzimidamide) dihydrochloride]",CC50 at 24 h,[1],> 100 µM
same,Sensitization fold,E. coli (ATCC 25922); [7],2 fold
same,Sensitization fold,E. coli (ATCC 25922); [8],2-fold at 10 μM
same,Sensitization fold,E. coli (ATCC 25922); [9],4-fold at 25 μM
same,MIC,E. coli (ATCC 25922),50 µM
same,Sensitization fold,MRSA (ATCC 33592); compound at 6 μM,2 to 4-fold at 6 μM
same,Sensitization fold,MRSA (ATCC 33592); compound at 12 μM,"8 to 16-fold at 12 μM,"
same,MIC,M. smegmatis,12.5 µM
same,CC50,HEK293 cells,100 µM
same,IC50,HEK293 cells,100 µM
same,CC50,NIH3T3 cells,100 µM
"Cc1cc(OCc2ccc(C(=N)N)cc2)cc(OCc2ccc(C(=N)N)cc2)c1 [MD-109, 4,4′-(((5-methyl-1,3-phenylene)bis(oxy))bis(methylene))dibenzimidamide dihydrochloride]",Sensitization fold,E. coli (ATCC 25922); [7],8 fold
same,Sensitization fold,E. coli (ATCC 25922); [8],8-fold at 10 μM
same,Sensitization fold,E. coli (ATCC 25922); [9],32-fold at 25 μM
same,MIC,E. coli (ATCC 25922),100 µM
same,Sensitization fold,B. subtilis; compound at 12 μM,32-fold at 12 μM
same,MIC,"B. subtilis; Bacillus subtilis, 24 h, compound alone, read-out: MIC",50 µM
same,CC50,HEK293 cells,100 µM
same,IC50,HEK293 cells,100 µM
same,CC50,NIH3T3 cells,100 µM
"Cc1cc(COc2ccc(C(=N)N)cc2F)cc(COc2ccc(C(=N)N)cc2F)c1 [MD-120, 4,4′-(((5-methyl-1,3-phenylene)bis(methylene))bis(oxy))bis(3-fluorobenzimidamide) dihydrochloride]",Sensitization fold,E. coli (ATCC 25922); [7],32 fold
same,Sensitization fold,E. coli (ATCC 25922); [8],32-fold at 10 μM
same,Sensitization fold,E. coli (ATCC 25922); [9],64-fold at 25 μM
same,MIC,E. coli (ATCC 25922),100 µM
same,Sensitization fold,MRSA (ATCC 33592); compound at 6 μM,4-fold at 6 μM
same,CC50,HEK293 cells,100 µM
same,IC50,HEK293 cells,100 µM
same,CC50,NIH3T3 cells,100 µM
"COc1cc(OCc2ccc(C(=N)N)cc2)cc(OCc2ccc(C(=N)N)cc2)c1 [MD-126, 4,4′-(((5-methoxy-1,3-phenylene)bis(oxy))bis(methylene))dibenzimidamide dihydrochloride]",Sensitization fold,E. coli (ATCC 25922); [7],2 fold
same,Sensitization fold,E. coli (ATCC 25922); [8],2-fold at 10 μM
same,MIC,E. coli (ATCC 25922),> 50 µM
same,CC50,HEK293 cells,100 µM
same,IC50,HEK293 cells,100 µM
same,CC50,NIH3T3 cells,100 µM
"CC(=O)O[C@H]1C[C@@]2(C)[C@@H](C[C@@H](O)[C@H]3[C@@]4(C)CC[C@@H](O)[C@@H](C)[C@@H]4CC[C@@]32C)/C1=C(\CCC=C(C)C)C(=O)O [Fusidic acid, reference compound]",Sensitization fold,E. coli (ATCC 25922); [10],32 fold
same,MIC of AB with MD-124,E. coli (ATCC 25922); E. coli,6.25 µg/mL
same,MIC,E. coli (ATCC 25922); [11],> 200 µg/mL
same,Sensitization fold with 5 μg/ml MD-124,[2],128 fold
same,MIC of AB with 5 μg/ml MD-124,K. pneumoniae (43816),25 µg/mL
same,Sensitization fold with 5 μg/ml MD-124,K. pneumoniae (43816),4 fold
"Cc1cc(COc2ccc(C(=N)NC(C)C)cc2)cc(COc2ccc(C(=N)NC(C)C)cc2)c1 [MD-102, 4,4′-(((5-methyl-1,3-phenylene)bis(methylene))bis(oxy))bis(N-isopropylbenzimidamide) dihydrochloride]",CC50 at 24 h,[1],> 100 µM
same,Sensitization fold,E. coli (ATCC 25922); [7],1 fold
same,Sensitization,"E. coli (ATCC 25922); E. coli, rifampicin, compound up to 25 μM",No effect up to 25 μM.
same,MIC,E. coli (ATCC 25922),50 µM
same,sensitization activity,"E. coli (ATCC 25922); rifampicin, compound at up to 10 μM",no sensitization activity
same,Sensitization fold,B. subtilis; compound at 2 μM,4-fold at 2 μM
same,Sensitization fold,MRSA (ATCC 33592); compound at 4 μM,32-fold at 4 μM
same,MIC,M. smegmatis,3 µM
same,CC50 at 24 h,[3],> 100 µM
same,CC50 at 24 h,[4],> 100 µM
N=C(N)N/N=C/c1ccc(-c2ccc(-c3ccc(/C=N/NC(=N)N)cc3)s2)cc1 [DB1079],Sensitization fold,"E. coli (ATCC 25922); E. coli, rifampicin, 5 μg/ml bacterial sensitizer",64^b fold
same,IC50,[5],12 µM
O=C(N[C@H](CO)[C@H](O)c1ccc([N+](=O)[O-])cc1)C(Cl)Cl [Chloramphenicol],Sensitization fold,E. coli (ATCC 25922); [10],8 fold
same,MIC of AB with MD-124,E. coli (ATCC 25922); E. coli,1.6 µg/mL
same,MIC,E. coli (ATCC 25922); read-out: MIC of AB only,12.5 µg/mL
same,Sensitization fold with 5 μg/ml MD-124,[2],4 fold
same,MIC of AB with 5 μg/ml MD-124,K. pneumoniae (43816),1.6 µg/mL
same,Sensitization fold with 5 μg/ml MD-124,K. pneumoniae (43816),>64 fold
same,Sensitization fold with 5 μg/ml MD-124,[6],8 fold
N=C(N)c1ccc(-c2ccc(-c3ccc(C(=N)N)cc3)[se]2)cc1 [DB1213],Sensitization fold,E. coli (ATCC 25922); [12],32^a fold
same,IC50,[5],50 µM
"CCC[C@@H]1C[C@@H](C(=O)N[C@@H]([C@H]2O[C@H](SC)[C@H](O)[C@@H](O)[C@H]2O)[C@H](C)Cl)N(C)C1 [Clindamycin, reference compound]",MIC of AB with MD-124,E. coli (ATCC 25922); E. coli,3.2 µg/mL
same,MIC,E. coli (ATCC 25922); [11],200 µg/mL
same,MIC of AB with 5 μg/ml MD-124,K. pneumoniae (43816),25 µg/mL
N=C(N)Nc1ccc(-c2ccc(-c3nc4ccc(NC(=N)N)cc4[nH]3)o2)cc1 [DB704],Sensitization fold,E. coli (ATCC 25922); [12],16^a fold
same,IC50,[5],100 µM
"N=C(N)c1ccc(OCc2cccc(COc3ccc(C(=N)N)cc3F)c2F)c(F)c1 [DB2558, 1,3-Bis {(4-amidino-2-fluoro)-phenoxymethyl}-2-fluorobenzene dihydrochloride]",CC50 at 24 h,[1],50 µM
same,Sensitization fold,"E. coli (ATCC 25922); E. coli, rifampicin, compound at 12 μM",4-fold at 12 μM.
same,Sensitization fold,E. coli (ATCC 25922); [9],8-fold at 25 μM;
same,MIC,"E. coli (ATCC 25922); E. coli, compound alone, read-out: MIC",50 µM
same,MIC,M. smegmatis; M. smegmatis,6 to 12 µM
same,CC50,HEK293 cells,100 µM
same,CC50,NIH3T3 cells,100 µM
